Assay results taken from patent publication US20110268812A1, “Cosmetic or dermatological composition comprising the combination of honey and a peptide” (LVMH RECHERCHE, priority 2010, published 2011).
Ends that are not written are not given here. * marks the point of attachment. Palmitoyl = CCCCCCCCCCCCCCCC(=O)*

Test system: normal human fibroblasts (NHFs)
Test: In vitro healing test: recolonization of the damaged zone by fibroblasts (IBIDI culture inserts)
Type: cell-based
Settings: 16 h treatment in DMEM alone, final concentrations: clover honey 100 μg/mL, Pal-VGVAPG solution 1%, change vs nontreated control (NT)
Procedure: This experiment is based on a model of biocompatible cell culture inserts allowing quantitative and perfectly reproducible measurement of the phenomena of healing in vitro.
The cells used in this study are normal human fibroblasts (NHFs).
The cells are seeded in 175 cm^2 flasks at a density of 1 million per flask in DMEM (Dulbecco's Modified Eagle's Medium) culture medium supplemented with 10% of foetal calf serum and 1.3 mM L-glutamine. Having reached confluence, the cells are trypsinized and re-seeded for the healing test.
Before seeding of the cells, inserts sold in the form of kits under the name Culture-Insert (ref. 80209) by the company IBIDI (Germany) are placed at the bottom of six wells of a plate. […]
The cells are maintained in culture for 16 h (optimum measurement time determined previously), in an incubator at 37° C. and in an atmosphere containing 5% CO2. […]
Images are immediately taken on a Nikon TE2000 video microscope in blue fluorescence (cell nuclei) and red fluorescence (actin filaments), at a rate of 2 photos per well at the damaged zone.
Image analysis is used to visualize and quantify the colonization by fibroblasts of the artificially “damaged” zone after removal of the insert. […]
The number of cells that have recolonized the damaged zone, per unit area (cm^2), is calculated. […]

With “palmitoyl-Val-Gly-Val-Ala-Pro-Gly (Palmitoyl-VGVAPG) [Pal-VGVAPG, sold in the form of an aqueous-glycolic solution under the trade name Biopeptide EL by the company Sederma]” the “recolonization of the damaged zone (number of cells having recolonized per cm^2) compared with the nontreated control” value was “+150%”.
